Results: the NIST ThermoML archive (doi:10.1016/j.jct.2004.10.011)

Assay: xn = mol fraction of the nth substance listed
Conditions: 318.15 K, Liquid, Vibrating tube method

CCC(=O)c1ccccc1 [ethyl phenyl ketone] + Cc1ccccc1
mass density [kg/m3]
Conditions | x2 = 0 | x2 = 0.1048 | x2 = 0.2025 | x2 = 0.3006 | x2 = 0.3991 | x2 = 0.4998 | x2 = 0.6004 | x2 = 0.7036 | x2 = 0.8028 | x2 = 0.902
100 kPa | 988.3 | 976.2 | 965 | 952.8 | 940 | 926.14 | 911.27 | 895.5 | 879.2 | 861.9
2130 kPa | 989.6 | 977.6 | 966.4 | 954.3 | 941.4 | 927.61 | 912.78 | 897 | 880.8 | 863.6
4150 kPa | 990.9 | 978.9 | 967.7 | 955.6 | 942.8 | 929.03 | 914.26 | 898.5 | 882.4 | 865.2
6180 kPa | 992.1 | 980.1 | 969 | 956.9 | 944.1 | 930.44 | 915.7 | 900 | 883.9 | 866.8
8210 kPa | 993.3 | 981.4 | 970.2 | 958.2 | 945.5 | 931.83 | 917.14 | 901.5 | 885.4 | 868.4
10230 kPa | 994.6 | 982.7 | 971.5 | 959.5 | 946.8 | 933.2 | 918.57 | 903 | 886.9 | 870
11250 kPa | 995.2 | 983.3 | 972.1 | 960.1 | 947.5 | 933.86 | 919.25 | 903.7 | 887.7 | 870.7
12260 kPa | 995.8 | 983.9 | 972.8 | 960.8 | 948.1 | 934.53 | 919.93 | 904.4 | 888.4 | 871.5
14290 kPa | 997 | 985.1 | 974 | 962 | 949.4 | 935.85 | 921.32 | 905.8 | 889.8 | 873
16310 kPa | 998.1 | 986.3 | 975.2 | 963.3 | 950.7 | 937.19 | 922.68 | 907.2 | 891.3 | 874.5
18340 kPa | 999.3 | 987.5 | 976.4 | 964.5 | 952 | 938.52 | 924.03 | 908.6 | 892.7 | 876
20370 kPa | 1000.4 | 988.7 | 977.6 | 965.7 | 953.2 | – | – | – | – | –
